The target of one assay is T1, DLAR D1 (Drosophila melanogaster, UniProt P16621).
T1 construct: DLAR 1448-1746; His tag (pET-15b or pET-22b); made in house; host or cells: E. coli BL21(DE3)
T1 sequence (P16621 1448-1746): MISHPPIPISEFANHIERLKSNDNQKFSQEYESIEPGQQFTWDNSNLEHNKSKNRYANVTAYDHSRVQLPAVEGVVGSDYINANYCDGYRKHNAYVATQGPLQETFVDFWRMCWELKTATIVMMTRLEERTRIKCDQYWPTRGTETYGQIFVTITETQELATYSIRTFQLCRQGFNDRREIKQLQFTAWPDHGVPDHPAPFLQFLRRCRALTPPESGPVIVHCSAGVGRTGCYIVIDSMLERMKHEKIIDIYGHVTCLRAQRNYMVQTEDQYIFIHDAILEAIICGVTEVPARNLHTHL
In words: Dephosphorylation of phosphotyrosine peptides (malachite green), DLAR D1. In kind it is biochemical. The settings on record: for Km / Vmax / Kcat / Kcat/Km: 0.01 µM protein; for Km / Kcat / Kcat/Km: 25 mM citrate pH 6.0, 15 min at 25°C, malachite green; for Vmax: 25 mM citrate buffer pH 6.0, 100 mM NaCl, 2 mM DTT, 15 min at 25°C, Biomol Green, 650 nm, Michaelis-Menten fit; for peptide preference: order of peptide substrates, DLAR D1 domain. The source says:
(§1) Substrates of PTPs characterized thus far include the activation loop segments of various kinases and regulatory loops of other signaling proteins. Suitably designed peptide substrates mimic the physiologically relevant substrates of PTPs. In the present study, peptide substrates were designed for DLAR for which more information was available on its interacting partners. […] The five peptides were chosen based on their distinct charge distributions around the central phosphotyrosine residue. The phosphorylated as well as non-phosphorylated peptides were obtained from GL Bioscience, China. The peptides were >95% pure and were used after a single round of desalting using a Sephadex G25 column (GE Healthcare). The concentration of the peptide samples for biochemical studies was ascertained by UV absorption at 268 nm for the pY residue.
(§2) Phosphatase activity of the recombinant PTP domains was determined by using para-Nitrophenylphosphate (pNPP), a small molecule generic substrate, as well as phosphotyrosine containing peptides. The pNPP assay was performed as reported previously, with a modification in the buffer composition (25 mM Citrate, Glycine and HEPES (CGH), pH 6.5, 100 mM NaCl and 2 mM DTT). Phosphatase activity with the phosphotyrosine peptides was ascertained by the malachite green reaction as described for PTPs previously. Briefly, the reaction mixture comprised of 0.01 µM protein incubated with increasing concentrations of different peptides in 25 mM citrate buffer pH 6.0, 100 mM NaCl and 2 mM DTT for 15 min at 25°C. The reaction was stopped by the addition of the Biomol Green reagent (Enzo Life Sciences) and the colour developed after 20 min was quantified at 650 nm. For all the assays, kinetic constants for the steady state catalysis were obtained by fitting the reaction curves to the Michaelis-Menten equation using the nonlinear regression module of Sigma plot software (Systat Software, Inc.).

The target of another assay is T2, DLAR D1 D2HSS (Drosophila melanogaster, UniProt P16621, C1961S).
T2 construct: DLAR 1448-2029; His tag (pET-15b or pET-22b); made in house; host or cells: E. coli BL21(DE3)
In kind it is biochemical. The note with it: 0.01 µM protein; for Km / Kcat / Kcat/Km: 25 mM citrate pH 6.0, 15 min at 25°C, malachite green; for Vmax: 25 mM citrate buffer pH 6.0, 100 mM NaCl, 2 mM DTT, 15 min at 25°C, Biomol Green, 650 nm, Michaelis-Menten fit.
Text: as §1, §2

The target in the next assay is T3, DLAR D2 (Drosophila melanogaster, UniProt P16621).
T3 construct: DLAR 1728-2029; His tag (pET-15b or pET-22b); made in house; host or cells: E. coli BL21(DE3)
T3 sequence (P16621 1728-2029): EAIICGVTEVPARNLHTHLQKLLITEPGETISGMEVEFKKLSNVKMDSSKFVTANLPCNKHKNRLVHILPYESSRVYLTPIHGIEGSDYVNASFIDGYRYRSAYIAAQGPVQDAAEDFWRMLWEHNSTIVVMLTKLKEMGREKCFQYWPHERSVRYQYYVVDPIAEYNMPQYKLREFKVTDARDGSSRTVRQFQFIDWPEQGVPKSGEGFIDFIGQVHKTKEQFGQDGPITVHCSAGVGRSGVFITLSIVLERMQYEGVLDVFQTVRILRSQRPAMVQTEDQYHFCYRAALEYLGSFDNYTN
The experiment in a line: Peptide preference of the DLAR D2 domain from ratios of kcat/Km (D1D2 vs D1). The class given is biochemical. The settings on record: order of peptide substrates, from comparison of kcat/Km of D1D2 with D1. Here is the method: as §2
The difference between the most and least preferred substrate in the case of DLAR D1D2 was much less (∼16.0×10^4 sec^−1 M^−1 between Cuticle and Myospheroid peptides) when compared to DLAR D1 alone (∼130.0×10^4 sec^−1 M^−1 between Insulin Receptor and Abelson peptides). […] A more comprehensive study of this activation mechanism is being reported elsewhere.

Another assay deals with T4, PTP99A D1D2 (Drosophila melanogaster, UniProt P35832).
T4 sequence (P35832 450-1050): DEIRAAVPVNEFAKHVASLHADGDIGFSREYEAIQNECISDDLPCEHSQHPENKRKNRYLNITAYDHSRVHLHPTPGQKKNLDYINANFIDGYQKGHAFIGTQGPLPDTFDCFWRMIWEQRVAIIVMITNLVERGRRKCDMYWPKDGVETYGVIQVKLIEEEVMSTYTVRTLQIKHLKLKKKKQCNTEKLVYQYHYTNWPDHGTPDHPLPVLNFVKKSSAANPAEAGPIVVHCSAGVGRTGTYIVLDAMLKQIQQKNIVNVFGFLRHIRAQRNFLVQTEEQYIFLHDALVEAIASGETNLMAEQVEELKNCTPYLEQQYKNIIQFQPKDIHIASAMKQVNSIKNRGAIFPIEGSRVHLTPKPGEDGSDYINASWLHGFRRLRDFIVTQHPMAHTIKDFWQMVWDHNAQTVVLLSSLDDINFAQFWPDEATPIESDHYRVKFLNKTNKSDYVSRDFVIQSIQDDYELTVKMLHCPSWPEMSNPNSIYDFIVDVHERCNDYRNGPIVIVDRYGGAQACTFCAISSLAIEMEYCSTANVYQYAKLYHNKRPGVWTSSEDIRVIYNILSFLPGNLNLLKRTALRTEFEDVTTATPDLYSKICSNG
In words: Dephosphorylation of phosphotyrosine peptides (malachite green), PTP99A D1D2. The settings on record: for Vmax / Kcat / Kcat/Km / Km: 0.01 µM protein; for Vmax: 25 mM citrate buffer pH 6.0, 100 mM NaCl, 2 mM DTT, 15 min at 25°C, Biomol Green, 650 nm, Michaelis-Menten fit; for Kcat / Kcat/Km / Km: 25 mM citrate pH 6.0, 15 min at 25°C, malachite green; for substrate preference: order of peptide substrates, PTP99A D1D2.
Text: as §1, §2

Where two headings read alike, the source gives them in different places. Square brackets hold non-standard residues; d marks the D form. Ends that are not written are not given here. Peptide text beside a SMILES is read from it. pY = N[C@@H](Cc1ccc(OP(=O)(O)O)cc1)C(=O)O

T2 sequence (P16621 1448-2029 C1961S): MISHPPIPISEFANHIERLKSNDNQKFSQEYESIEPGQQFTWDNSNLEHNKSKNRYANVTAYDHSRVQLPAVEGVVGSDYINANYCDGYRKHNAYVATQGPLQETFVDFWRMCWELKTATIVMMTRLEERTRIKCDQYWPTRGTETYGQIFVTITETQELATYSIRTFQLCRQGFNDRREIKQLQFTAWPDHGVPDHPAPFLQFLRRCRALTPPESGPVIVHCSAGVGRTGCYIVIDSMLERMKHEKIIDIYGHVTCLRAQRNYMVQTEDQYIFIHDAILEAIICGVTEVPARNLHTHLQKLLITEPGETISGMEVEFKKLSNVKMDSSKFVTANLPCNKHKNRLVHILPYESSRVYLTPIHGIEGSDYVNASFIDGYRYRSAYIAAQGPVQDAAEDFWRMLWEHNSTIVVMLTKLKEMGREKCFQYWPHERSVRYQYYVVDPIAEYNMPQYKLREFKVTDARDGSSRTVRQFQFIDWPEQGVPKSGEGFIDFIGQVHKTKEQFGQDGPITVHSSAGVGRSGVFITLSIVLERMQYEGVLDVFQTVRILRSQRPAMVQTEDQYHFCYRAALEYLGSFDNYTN

For the compound `CC(C)C[C@H](NC(=O)[C@H](C)NC(=O)CNC(=O)[C@H](Cc1ccc(OP(=O)(O)O)cc1)NC(=O)[C@H](CC(=O)O)NC(=O)[C@@H]1CCCN1C(=O)[C@H](CCC(=O)O)NC(=O)[C@H](C)NC(=O)[C@@H](N)[C@@H](C)O)C(=O)N[C@@H](Cc1ccc(O)cc1)C(=O)N[C@@H](CCC(=O)O)C(=O)O` [Cuticle peptide] (H-TAEPD[pY]GALYE-OH), the Michaelis constant (Km) was determined as 56.5 ± 4.64 µM at DLAR D1 and 162 ± 13.8 µM on DLAR D1 D2HSS.
Regarding “CDDS[pY]FGNKC (cysteine pairing not given here) [Myospheroid peptide, phosphotyrosine peptide CDDSpYFGNKC from PeptideMine server, obtained from GL Bioscience, >95% pure]”, at DLAR D1, the Vmax is 29.58 ± 0.84 µmol/min/mg, the Kcat was 23.66 ± 0.67 s⁻¹, the Kcat/Km is given as 30.14 ± 0.06 x 10^4 sec^-1M^-1 and the peptide preference result is reported as “Insulin receptor peptide>Cuticle peptide>Nervous fingers peptide>Myospheroid peptide>Abelson peptide”. The Km on DLAR D1 (read-out: Km) was 78.5 ± 6.67 µM. Further, the peptide preference result on DLAR D2 was “Insulin Receptor peptide>Nervous fingers peptide>Cuticle peptide>Myospheroid peptide>Abelson peptide”. Besides, on DLAR D1 D2HSS, the Vmax is 3.11 ± 0.12 µmol/min/mg, the Kcat stood at 3.7 ± 0.15 s⁻¹ and the Kcat/Km is 5.79 ± 0.08 x 10^4 sec^-1M^-1. Further, at DLAR D1 D2HSS (read-out: Km), the Km stood at 63.9 ± 7.99 µM. Also, at PTP99A D1D2, the Vmax came to 1.09 ± 0.03 µmol/min/mg, the Kcat was 1.35 ± 0.03 s⁻¹, the Kcat/Km was 44.1 ± 1.22 x 10^4 sec^-1M^-1 and the Km is 3.06 ± 0.36 µM. The substrate preference result on PTP99A D1D2 is “Insulin Receptor peptide>Cuticle peptide>Myospheroid>Abelson peptide>Nervous fingers peptide”.
As to “RDDT[pY]TAHAG [Abelson peptide, phosphotyrosine peptide RDDTpYTAHAG from PeptideMine server, obtained from GL Bioscience, >95% pure]”, at DLAR D1, the Vmax is 4.95 ± 0.59 µmol/min/mg, the Kcat is 3.96 ± 0.68 s⁻¹, the Kcat/Km was 21.77 ± 0.32 x 10^4 sec^-1M^-1 and the peptide preference entry is listed as “Insulin receptor peptide>Cuticle peptide>Nervous fingers peptide>Myospheroid peptide>Abelson peptide”. For the same compound, the Michaelis-Menten constant (Km) at DLAR D1 (read-out: Km) is 18.2 ± 8.98 µM. The peptide preference entry at DLAR D2 was “Insulin Receptor peptide>Nervous fingers peptide>Cuticle peptide>Myospheroid peptide>Abelson peptide”. In addition, at DLAR D1 D2HSS, the Vmax was 0.6 ± 0.01 µmol/min/mg, the Kcat amounted to 0.72 ± 0.01 s⁻¹ and the Kcat/Km is given as 5.82 ± 0.07 x 10^4 sec^-1M^-1. On DLAR D1 D2HSS (read-out: Km), the Michaelis constant (Km) came out at 12.4 ± 1.07 µM. Also, on PTP99A D1D2, the maximal velocity (Vmax) is 2.59 ± 0.07 µmol/min/mg, the Kcat turned out to be 3.21 ± 0.08 s⁻¹, the Kcat/Km is listed as 19.97 ± 0.15 x 10^4 sec^-1M^-1 and the Michaelis-Menten constant (Km) turned out to be 16.3 ± 1.55 µM. The substrate preference entry at PTP99A D1D2 is reported as “Insulin Receptor peptide>Cuticle peptide>Myospheroid>Abelson peptide>Nervous fingers peptide”.
“VIGD[pY]VCRLCK (cysteine pairing not given here) [Nervous Fingers peptide, phosphotyrosine peptide VIGDpYVCRLCK from PeptideMine server, obtained from GL Bioscience, >95% pure]”: the maximum rate (Vmax) on DLAR D1 is 37.5 ± 1.4 µmol/min/mg; on DLAR D1 D2HSS, 7.9 ± 0.35 µmol/min/mg; at PTP99A D1D2, 8.89 ± 0.38 µmol/min/mg. Besides, the Kcat is 30 ± 1.12 s⁻¹ at DLAR D1, 9.42 ± 0.42 s⁻¹ on DLAR D1 D2HSS and 11.01 ± 0.46 s⁻¹ on PTP99A D1D2. In addition, the Kcat/Km at DLAR D1 is reported as 78.51 ± 0.09 x 10^4 sec^-1M^-1; on DLAR D1 D2HSS, 7.02 ± 0.07 x 10^4 sec^-1M^-1; at PTP99A D1D2, 6.12 ± 0.12 x 10^4 sec^-1M^-1. Moreover, the values for the Km on DLAR D1 (read-out: Km), on DLAR D1 D2HSS (read-out: Km) and on PTP99A D1D2 were 38.2 ± 5.05 µM, 134 ± 14.9 µM and 180 ± 15 µM, respectively. Besides, the peptide preference result on DLAR D1 is on record as “Insulin receptor peptide>Cuticle peptide>Nervous fingers peptide>Myospheroid peptide>Abelson peptide”; on DLAR D2 it was “Insulin Receptor peptide>Nervous fingers peptide>Cuticle peptide>Myospheroid peptide>Abelson peptide”. Further, the substrate preference entry at PTP99A D1D2 is given as “Insulin Receptor peptide>Cuticle peptide>Myospheroid>Abelson peptide>Nervous fingers peptide”.
